These compounds were tested against T1, GCase (Homo sapiens, UniProt P04062) (assay: activation of GCase in a live cell PFB assay in HELA cells). Conditions: activation of GCase, EC50 ranges.
T1 construct: endogenous in cells; host or cells: HeLa cells
T1 sequence (P04062 40-536): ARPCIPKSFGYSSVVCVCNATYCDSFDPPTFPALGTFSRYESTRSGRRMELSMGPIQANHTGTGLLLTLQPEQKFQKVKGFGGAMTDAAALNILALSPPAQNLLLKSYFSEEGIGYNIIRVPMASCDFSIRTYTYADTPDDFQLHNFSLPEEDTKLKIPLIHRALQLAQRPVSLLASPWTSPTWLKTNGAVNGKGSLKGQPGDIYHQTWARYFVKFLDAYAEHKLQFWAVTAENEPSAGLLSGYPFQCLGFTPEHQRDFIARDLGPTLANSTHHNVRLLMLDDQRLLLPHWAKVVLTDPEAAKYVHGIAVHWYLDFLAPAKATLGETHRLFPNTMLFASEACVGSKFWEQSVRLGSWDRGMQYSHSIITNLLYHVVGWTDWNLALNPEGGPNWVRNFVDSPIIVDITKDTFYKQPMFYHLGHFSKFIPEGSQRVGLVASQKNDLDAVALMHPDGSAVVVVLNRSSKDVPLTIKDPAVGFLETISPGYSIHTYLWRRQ
Type: cell-based
Procedure: Exemplary compounds were evaluated for activation of GCase in a live cell PFB assay in HELA cells (essentially as described in Ysselstein et al., “LRRK2 kinase activity regulates lysosomal glucocerebrosidase in neurons derived from Parkinson's disease patients” Nature Communications (2019) 10:5570). […] EC50 ranges: A: <10 μM; B: >10-50 μM; C: >50-100 μM; D: >100 μM.

| EC50 | Structure (SMILES) |
| --- | --- |
| 10 to 50 µM | FC(F)Cn1ncc2ncc(N3CCC4(CN(c5ccc(OC(F)F)nc5)C4)C3)nc21 [Cmpd 450] |
| 10 to 50 µM | FC(F)Cn1ncc2ncc(N3CCC4(CN(c5ccc(OC(F)(F)F)nc5)C4)C3)nc21 [Cmpd 451] |
| < 10 µM | FC(F)Cn1ncc2ncc(N3CCC4(CN(c5ccnc(OC(F)F)c5)C4)C3)nc21 [Cmpd 452] |
| 10 to 50 µM | Fc1cnc(N2CC3(CCN(c4cnc5cnn(CC(F)F)c5n4)C3)C2)cc1C(F)(F)F [Cmpd 453] |
| 10 to 50 µM | Cc1cc(N2CC3(CCN(c4cnc5cnn(C6COC6)c5n4)C3)C2)nc(C(F)(F)F)n1 [Cmpd 454] |
| 10 to 50 µM | Cc1nc(N2CC3(CCN(c4cnc5c(C)nn(C6COC6)c5n4)C3)C2)cc(C(F)(F)F)n1 [Cmpd 455] |
| 10 to 50 µM | Cc1cc(N2CC3(CCN(c4cnc5cnn(C6COC6)c5n4)CC3)CC2=O)nc(C(F)(F)F)n1 [Cmpd 456] |
| 10 to 50 µM | Cc1nc(N2CC3(CCN(c4cnc5cnn(C6COC6)c5n4)CC3)CC2=O)cc(C(F)(F)F)n1 [Cmpd 457] |
| < 10 µM | Cc1cc(N2CC3(CCN(c4cnc5c(C)nn(C6COC6)c5n4)CC3)CC2=O)nc(C(F)(F)F)n1 [Cmpd 458] |
| 10 to 50 µM | Cc1nc(N2CC3(CCN(c4cnc5c(C)nn(C6COC6)c5n4)CC3)CC2=O)cc(C(F)(F)F)n1 [Cmpd 459] |
| < 10 µM | Cc1nn(C2COC2)c2nc(N3CCC4(CN(c5cnc(C(F)(F)F)nc5)C4)C3)ncc12 [Cmpd 460] |
| > 100 µM | Cc1ncc(N2CC3(CCN(c4cnc5cnn(CC(F)F)c5n4)C3)C2)cn1 [Cmpd 461] |
| 10 to 50 µM | CCc1ncc(N2CC3(CCN(c4cnc5cnn(CC(F)F)c5n4)C3)C2)cn1 [Cmpd 462] |
| 10 to 50 µM | Cc1cc(N2CC3(CCN(c4cnc5cnn(CC(F)(F)F)c5n4)C3)C2)nc(C(F)(F)F)n1 [Cmpd 463] |
| < 10 µM | Cc1cc(N2CC3(CCN(c4cnc5c(C)nn(CC(F)F)c5n4)C3)C2)nc(C(F)(F)F)n1 [Cmpd 464] |
| > 100 µM | Cc1cc(N2CC3(CCN(c4cncc(-c5nncs5)n4)C3)C2)nc(C(F)(F)F)n1 [Cmpd 465] |
| > 100 µM | Cc1cc(N2CC3(CCN(c4ncc5cnn(CC(F)F)c5n4)C3)C2)nc(C(F)(F)F)n1 [Cmpd 466] |
| < 10 µM | Cc1cc(N2CC3(CCN(c4ncc5cnn(CC(F)(F)F)c5n4)C3)C2)nc(C(F)(F)F)n1 [Cmpd 467] |
| < 10 µM | Cc1cc(N2CC3(CCN(c4ncc5c(C)nn(CC(F)F)c5n4)C3)C2)nc(C(F)(F)F)n1 [Cmpd 468] |
| > 100 µM | FC(F)(F)c1ncc(N2CC3(CCN(c4ncc5cnn(C6CCCCO6)c5n4)C3)C2)cn1 (centres unmarked) [Cmpd 469] |
| 10 to 50 µM | FC(F)(F)c1ncc(N2CC3(CCN(c4cnc5cnn(C6CCCCO6)c5n4)C3)C2)cn1 (centres unmarked) [Cmpd 470] |
| < 10 µM | Cc1cc(N2CC3(CCN(c4ncc5c(C)nn(C6COC6)c5n4)C3)C2)nc(C(F)(F)F)n1 [Cmpd 471] |
| > 100 µM | FC(F)Cn1ncc2ncc(N3CCC4(CCN(c5ccnc(C(F)(F)F)c5)C4)C3)nc21 (centres unmarked) [Cmpd 472] |
| 10 to 50 µM | FC(F)(F)Cn1ncc2ncc(N3CCC4(CCN(c5ccnc(C(F)(F)F)c5)C4)C3)nc21 (centres unmarked) [Cmpd 473] |

| EC50 | Structure (SMILES) |
| --- | --- |
| > 100 µM | FC(F)(F)c1cc(N2CCC3(CCN(c4ncc5cnn(C6COC6)c5n4)C3)C2)ccn1 (centres unmarked) [Cmpd 474] |
| > 100 µM | Cc1nn(C2COC2)c2nc(N3CCC4(CCN(c5ccnc(C(F)(F)F)c5)C4)C3)ncc12 (centres unmarked) [Cmpd 475] |
| 50 to 100 µM | Cc1nn(C2COC2)c2nc(N3CCC4(CCN(c5ccnc(C(F)(F)F)c5)C4)C3)cnc12 (centres unmarked) [Cmpd 476] |
| < 10 µM | FC(F)(F)Cn1ncc2ncc(N3CCC4(CC3)CN(c3cc(C(F)(F)F)ccn3)C4)nc21 [Cmpd 477] |
| < 10 µM | FC(F)(F)c1ccnc(N2CC3(CCN(c4ncc5cnn(C6COC6)c5n4)CC3)C2)c1 [Cmpd 478] |
| > 100 µM | Cc1nn(C2COC2)c2nc(N3CCC4(CC3)CN(c3cc(C(F)(F)F)ccn3)C4)ncc12 [Cmpd 479] |
| 10 to 50 µM | Cc1nn(C2COC2)c2nc(N3CCC4(CC3)CN(c3cc(C(F)(F)F)ccn3)C4)cnc12 [Cmpd 480] |
| 10 to 50 µM | FC(F)Cn1ncc2ncc(N3CCC4(CCN(c5cnc(C(F)(F)F)nc5)C4)C3)nc21 (centres unmarked) [Cmpd 481] |
| 10 to 50 µM | FC(F)Cn1ncc2ncc(N3CCC4(CCN(c5ccc(C(F)(F)F)nc5)C4)C3)nc21 (centres unmarked) [Cmpd 482] |
| 10 to 50 µM | FC(F)Cn1ncc2ncc(N3CCC4(CCN(c5ccc(C(F)(F)F)cn5)C4)C3)nc21 (centres unmarked) [Cmpd 483] |
| < 10 µM | FC(F)Cn1ncc2ncc(N3CCC4(CCN(c5ccnc(C(F)(F)F)n5)C4)C3)nc21 (centres unmarked) [Cmpd 484] |
| > 100 µM | Cc1nn(CC(F)F)c2nc(N3CCC4(CCN(c5ccnc(C(F)(F)F)c5)C4)C3)cnc12 (centres unmarked) [Cmpd 485] |
| 50 to 100 µM | Cc1nn(CC(F)F)c2nc(N3CCC4(CCN(c5ccnc(C(F)(F)F)c5)C4)C3)ncc12 (centres unmarked) [Cmpd 486] |
| 10 to 50 µM | FC(F)(F)c1cc(N2CCC3(CCN(c4cnc5cnn(C6COC6)c5n4)C3)C2)ccn1 (centres unmarked) [Cmpd 487] |
| > 100 µM | FC(F)Cn1ncc2cnc(N3CCC4(CCN(c5ccnc(C(F)(F)F)c5)C4)C3)nc21 (centres unmarked) [Cmpd 488] |
| 10 to 50 µM | FC(F)(F)Cn1ncc2cnc(N3CCC4(CCN(c5ccnc(C(F)(F)F)c5)C4)C3)nc21 (centres unmarked) [Cmpd 489] |
| < 10 µM | Cc1nn(CC(F)F)c2nc(N3CCC4(CC3)CN(c3cc(C(F)(F)F)ccn3)C4)cnc12 [Cmpd 490] |
| 10 to 50 µM | Cc1nn(CC(F)F)c2nc(N3CCC4(CC3)CN(c3cc(C(F)(F)F)ccn3)C4)ncc12 [Cmpd 491] |
| 10 to 50 µM | FC(F)Cn1ncc2cnc(N3CCC4(CC3)CN(c3cc(C(F)(F)F)ccn3)C4)nc21 [Cmpd 492] |
| < 10 µM | FC(F)(F)c1ccnc(N2CC3(CCN(c4cnc5cnn(C6COC6)c5n4)CC3)C2)c1 [Cmpd 493] |
| < 10 µM | O=C1CC2(CCN(c3cnc4cnn(CC(F)F)c4n3)C2)CN1c1ccnc(C(F)(F)F)c1 (centres unmarked) [Cmpd 494] |
| 10 to 50 µM | Cc1nn(CC(F)F)c2nc(N3CCC4(CC(=O)N(c5ccnc(C(F)(F)F)c5)C4)C3)cnc12 (centres unmarked) [Cmpd 495] |
| 10 to 50 µM | Cc1nn(CC(F)F)c2nc(N3CCC4(CC(=O)N(c5ccnc(C(F)(F)F)c5)C4)C3)ncc12 (centres unmarked) [Cmpd 496] |
| 50 to 100 µM | O=C1CC2(CCN(c3cnc4cnn(CC(F)F)c4n3)C2)CN1c1ccc(C(F)(F)F)cn1 (centres unmarked) [Cmpd 497] |

| EC50 | Structure (SMILES) |
| --- | --- |
| 10 to 50 µM | O=C1CC2(CCN(c3cnc4cnn(CC(F)F)c4n3)C2)CN1c1ccc(C(F)(F)F)nc1 (centres unmarked) [Cmpd 498] |
| < 10 µM | Cc1nc(N2CC3(CCN(c4cnc5cnn(CC(F)(F)F)c5n4)C3)C2)cc(C(F)(F)F)n1 [Cmpd 499] |
| > 100 µM | Cc1nc(N2CC3(CCN(c4ncc5cnn(CC(F)(F)F)c5n4)C3)C2)cc(C(F)(F)F)n1 [Cmpd 500] |
| > 100 µM | Cc1nc(N2CC3(CCN(c4ncc5cnn(CC(F)F)c5n4)C3)C2)cc(C(F)(F)F)n1 [Cmpd 501] |
| < 10 µM | Cc1nc(N2CC3(CCN(c4ncc5c(C)nn(CC(F)F)c5n4)C3)C2)cc(C(F)(F)F)n1 [Cmpd 502] |
| < 10 µM | Cc1nc(N2CC3(CCN(c4cnc5c(C)nn(CC(F)F)c5n4)C3)C2)cc(C(F)(F)F)n1 [Cmpd 503] |
| 10 to 50 µM | Cc1nc(N2CC3(CCN(c4ncc5c(C)nn(C6COC6)c5n4)C3)C2)cc(C(F)(F)F)n1 [Cmpd 504] |
| > 100 µM | Cc1nc(N2CC3(CCN(c4cncc(-c5nncs5)n4)C3)C2)cc(C(F)(F)F)n1 [Cmpd 505] |
| > 100 µM | O=C1CC2(CCN(c3ccnc(C(F)(F)F)c3)C2)CN1c1cnc2cnn(CC(F)F)c2n1 (centres unmarked) [Cmpd 506] |
| < 10 µM | O=C1CC2(CCN(c3ccc(C(F)(F)F)nc3)C2)CN1c1cnc2cnn(CC(F)F)c2n1 (centres unmarked) [Cmpd 507] |
| 10 to 50 µM | O=C1CC2(CCN(c3ccc(C(F)(F)F)cn3)C2)CN1c1cnc2cnn(CC(F)F)c2n1 (centres unmarked) [Cmpd 508] |
| 10 to 50 µM | Cc1nc(N2CCC3(CC(=O)N(c4cnc5cnn(CC(F)F)c5n4)C3)C2)cc(C(F)(F)F)n1 (centres unmarked) [Cmpd 509] |
| > 100 µM | Cc1nc(N2CC3(CCN(c4cnc5cnn(CC(F)F)c5n4)C3)CC2=O)cc(C(F)(F)F)n1 (centres unmarked) [Cmpd 510] |
| < 10 µM | Cc1nc(N2CCC3(CCN(c4cnc5cnn(CC(F)F)c5n4)CC3)C2)cc(C(F)(F)F)n1 [Cmpd 511] |
| < 10 µM | Cc1nc(N2CCC3(CCN(c4cnc5cnn(CC(F)F)c5n4)CC3)C2=O)cc(C(F)(F)F)n1 [Cmpd 512] |
| 10 to 50 µM | Cc1nc(N2CC3(CCN(c4cnc5cnn(CC(F)F)c5n4)CC3)CC2=O)cc(C(F)(F)F)n1 [Cmpd 513] |
| < 10 µM | Cc1nn(CC(F)F)c2nc(N3CCC4(CCN(c5ccnc(C(F)(F)F)c5)C4=O)C3)cnc12 (centres unmarked) [Cmpd 514] |
| < 10 µM | Cc1nn(CC(F)F)c2nc(N3CCC4(CCN(c5ccnc(C(F)(F)F)c5)C4=O)C3)ncc12 (centres unmarked) [Cmpd 515] |
| < 10 µM | Cc1nc(N2CCC3(CCN(c4cnc5cnn(CC(F)F)c5n4)C3)C2=O)cc(C(F)(F)F)n1 (centres unmarked) [Cmpd 516] |
| < 10 µM | O=C1N(c2ccnc(C(F)(F)F)c2)CCC12CCN(c1cnc3cnn(CC(F)F)c3n1)C2 (centres unmarked) [Cmpd 517] |
| > 100 µM | O=C1N(c2cnc3cnn(CC(F)F)c3n2)CCC12CCN(c1ccnc(C(F)(F)F)c1)C2 (centres unmarked) [Cmpd 518] |
| 10 to 50 µM | O=C1N(c2cnc3cnn(CC(F)F)c3n2)CCC12CCN(c1ccc(C(F)(F)F)nc1)C2 (centres unmarked) [Cmpd 519] |
| 10 to 50 µM | O=C1N(c2cnc3cnn(CC(F)F)c3n2)CCC12CCN(c1ccc(C(F)(F)F)cn1)C2 (centres unmarked) [Cmpd 520] |
